Experimental data from publication PMC7336998, “Discovery of secondary sulphonamides as IDO1 inhibitors with potent antitumour effects in vivo” (Journal of Enzyme Inhibition and Medicinal Chemistry, 2020).
Entries after “also recorded” stand apart in the source; their conditions may differ.

How the values were obtained:
IDO1 protein expression = assay: Western blot of IDO1 protein expression in IFN-γ-treated HeLa cells; format: cell-based, human
Experimental: (§1) The main bioassays performed in the study, including HeLa cell-based IDO1/kynurenine assay, Western blot analysis, T cell proliferation and Treg cell differentiation experiments, were carried out as described previously.
To exclude the possibility that these secondary sulphonamides inhibit IDO1 activity by down-regulating IDO1 expression, we utilised Western blot to measure the expression of IDO1 protein in HeLa cells treated with different compounds.
Figure 3. […] (B) The greyscale scanning statistical results of A. (C) HeLa cells were incubated with compound 5d (3, 10, 30 μM) for 24 h. (D) The greyscale scanning statistical results of C. (E) HeLa cells were incubated with compound 5d (3, 10, 30 μM) for 48 h. (F) The greyscale scanning statistical results of E. Data are presented as means ± SEM (n = 3).

CT26 colon carcinoma = CT26 colon carcinoma xenograft in immunodeficient BALB/c nude mice; format: in vivo, mouse
Experimental: Eight-week-old male BALB/c nude mice, weighing 18–22 g, were supplied by Model Animal Research Centre of Nanjing University (Nanjing, China). 1 × 10^7/ml and 1 × 10^6 CT26 cells (in 0.1 ml PBS) were injected subcutaneously into the right flanks of mice. After CT26 xenograft BALB/c nude mouse model was established, all mice were randomly divided into three groups (n = 8). 5d (12.5 mg/kg) were administered (i.g) every day and 5-FU (25 mg/kg) awere administered (i.p) every three days. The following experimental procedures were similar to the described above.
(§2) For immunohistochemistry staining, the sections were deparaffinized, rehydrated, and washed in 1% PBS-Tween 20, and then treated with 2% hydrogen peroxide, blocked with 3% goat serum (Life Technology, 16210–064) and incubated for 2 h at room temperature with specific primary antibodies. Then the slides were incubated with streptavidin-HRP (Shanghai Gene Company, GK500705) for 40 min, then stained with DAB (Shanghai Gene Company, GK500705) substrate and counter-stained with haematoxylin. Images were acquired by microscopy (Olympus IX51).
Then, in order to clarify whether the in vivo antitumour efficacy of compound 5d was related to the mouse immune system, we repeated the above experiment in immunodeficient nude mice. Briefly, BALB/c nude mice bearing established CT26 colon carcinoma xenograft were treated with compound 5d and 5-FU for 10 days.
Figure 8. […] 1 × 10^6 CT26 cells were transplanted subcutaneously into the armpit of immunodeficient BALB/c nude mice. Three days after transplantation, mice were randomly allocated to vehicle control or treatment groups (n = 8). Drugs were administered on days 1–9. (A) Tumour volume and mouse body weight (B) were recorded. After sacrifice, solid tumours were separated and weighed (C, D). Data represent mean ± SEM, n = 8, *p < 0.05, **p < 0.01 vs vehicle.
To verify the above conclusions, we further performed H&E and IHC staining on the nude mouse CT26 tumour tissues. […] These findings further supported the above conclusions.

B16F1 melanoma = B16F1 melanoma xenograft in BALB/c mice; format: in vivo, mouse
Experimental: BALB/c mice (6–8 weeks old, 18–22 g) were supplied by Model Animal Research Centre of Nanjing University (Nanjing, China). Mice were maintained under standard specific-pathogen-free (SPF) conditions (21 ± 2 °C and 12-h light: dark cycle). Animal welfare and experimental procedures were carried out strictly in accordance with the Guide for the Care and Use of Laboratory Animals (The Ministry of Science and Technology of China, 2006) and the related ethical regulations of our university. All efforts were made to minimise animals’ suffering and to reduce the number of animals used. Mouse colon cancer cells (CT26) and melanoma cells (B16F1) were cultured and collected by centrifugation (1000 rpm, 5 min) and washed twice with ice-cold PBS. Then cells were diluted to 1 × 10^7/ml and 1 × 10^6 CT26/B16F1 cells (in 0.1 ml PBS) were injected subcutaneously into the right flanks of mice. All mice formed tumours three days after injection. Then mice were randomly distributed into five groups (n = 10/8) according to tumour volumes. 5d ([…], 12.5 mg/kg) were administered (i.g) to each group respectively every day. 5-FU (25 mg/kg) and Cis-platinum (1 mg/kg) were administered (i.p) every three days. Tumour length and tumour width were measured with a Vernier calliper every three days. Tumour volumes were measured and calculated using the equation volume = a × b^2/2, where “a” is the maximal […] and “b” is maximal orthogonal width. After the administration were completed, mice were weighed, euthanized, and tumours were removed and the weight were taken.
as §2
In addition, we also utilised a B16F1 melanoma mouse xenograft model to observe the efficacy of compound 5d on the other tumours. Malignant melanoma is a highly invasive tumour and its immunotherapy has been receiving attention in recent years. As mentioned above, B16F1 is a murine melanoma cell line that expresses IDO1. The mouse xenograft model was established by subcutaneously implanting B16F1 melanoma cells into BALB/c mice and treated with 5d (3.125, 6.25, 12.5 mg/kg, i.g, every day) or the positive control Cis-platinum (1 mg/kg, i.p, every other day). Tumour volumes were measured every two days for 11 days.
Figure 13. Compound 5d suppressed melanoma growth in mice. 1 × 10^6 melanoma cells were transplanted subcutaneously into the armpit of the BALB/c mice. Three days after transplantation, mice were randomly allocated to vehicle control or treatment groups (n = 6). Drugs were administered on days 1–11. (A) Tumour volume and mouse body weight (B) were recorded. After sacrifice, solid tumours were separated and weighed (C, D). Data represent mean ± SEM, n = 6, *p < 0.05, **p < 0.01 vs vehicle.
Analogously, we also performed H&E, IHC and TUNEL experiments on the B16F1 melanoma tissues (Figure 14 and 15).

[1] = tested on: naïve CD4+ T cells co-cultured with B16F1 melanoma cells; assay: T cell proliferation in B16F1-T cell co-culture (MTT); format: cell-based, mouse; conditions: 18 μM
Experimental: as §1
T lymphocytes are exceedingly sensitive to low tryptophan levels. Overactivation of the kynurenine pathway by high IDO1 expression leads to local tryptophan depletion, which can suppress T cell proliferation by activating the GCN2 kinase pathway and eventually result in T cell anergy. Here, to determine whether secondary sulphonamides could rescue IDO1-mediated blockade of T cell proliferation, we used a co-culture of IDO1-expressing B16F1 melanoma cells with naïve CD4^+ T cells to mimic the tumour microenvironment. Given that melanoma is a highly immunogenic tumour and IDO1 constitutively expresses in melanoma cells, B16F1 murine melanoma cell lines that express IDO1 were then used to co-culture with T cells. Naïve CD4^+ T cells were isolated from spleens of C57BL/6 mice.
Figure 4. Compounds 5d and 8 g could promote the proliferation of T cells. Based on the B16F1-T cell co-culture system, use MTT assay to test T cells proliferation. The Navoximod and compounds were added to the system at the concentration of 1.5 and 18 μM. Data represent mean ± SEM (n = 3).

[2] = nude mouse CT26 tumour tissue, 12.5 mg/kg i.g

C=CC(=O)Nc1ccc(S(=O)(=O)NCc2cccc(Cl)c2)cc1 [5d, N-(4-(N-(3-Chlorobenzyl)sulfamoyl)phenyl)acrylamide]
expression of IDO1 protein (IDO1 protein expression; HeLa cells, 3, 10, 30 µM for 24 h or 48 h): did not affect IDO1 expression | expression of IDO1 protein (IDO1 protein expression; HeLa cells, IFN-γ 100 ng/mL 24 h, then compounds at their IC50 concentrations for 24 h): did not influence IDO1 expression | tumour growth (CT26 colon carcinoma; BALB/c nude mice, 12.5 mg/kg i.g every day, vs vehicle): did not block tumour growth | expression of PCNA (CT26 colon carcinoma; [2]): had no influence on the expression of PCNA | tumour cell morphology (H&E staining) (CT26 colon carcinoma; [2]): remained intact morphology | IFN-γ expression (IHC) (B16F1 melanoma; B16F1 melanoma tissue): up-regulating IFN-γ expression | granzyme B (IHC) (B16F1 melanoma; B16F1 melanoma tissue): stimulating granzyme B secretion | number of tumour cells (H&E, PCNA, TUNEL) (B16F1 melanoma; B16F1 melanoma tissue): reduce the number of tumour cells by inhibiting proliferation and inducing apoptosis | tumour growth (tumour volume and tumour weight) (B16F1 melanoma; BALB/c mice, 3.125, 6.25, 12.5 mg/kg, i.g, every day, 11 days, vs vehicle): significantly suppressed the growth of tumour in a dose-dependent manner | body weight (B16F1 melanoma; BALB/c mice, 3.125-12.5 mg/kg i.g, 11 days): without significant body weight loss | reduction of average volume of tumour (B16F1 melanoma; BALB/c mice, high dose, 11 days): 34.3% | T cell proliferation [1]: significant augmentation on T cell activity; also recorded: better enhancement of T cell proliferation than navoximod
